In ChEMBL document CHEMBL1139129, “Bis-styrylpyridine and bis-styrylbenzene derivatives as inhibitors for Abeta fibril formation” (Bioorg Med Chem Lett, 2007):

The molecules below were run on HT-22 (assay: Cytotoxicity against HT22 cells assessed as cell viability at 10 uM by MTT assay relative to control). Conditions: Mus musculus, read-out: Activity.
Assay type: functional, Homo sapiens

Row | Compound | viability at 10 µM
1 | CNc1ccc(/C=C/c2cccc(/C=C/c3ccc(NC)c(OC)c3)c2)cc1OC [listing 1 of 2 here] | 150%
2 | COc1cc(/C=C/C(=O)CC(=O)/C=C/c2ccc(O)c(OC)c2)ccc1O [CURCUMIN] | 116%

These molecules were tested against Amyloid-beta precursor protein (Homo sapiens, UniProt P05067) (assay: Inhibition of amyloid beta 42 fibril formation by thioflavin T assay). Conditions: not given.
Amyloid-beta precursor protein, sequence (P05067 whole entry): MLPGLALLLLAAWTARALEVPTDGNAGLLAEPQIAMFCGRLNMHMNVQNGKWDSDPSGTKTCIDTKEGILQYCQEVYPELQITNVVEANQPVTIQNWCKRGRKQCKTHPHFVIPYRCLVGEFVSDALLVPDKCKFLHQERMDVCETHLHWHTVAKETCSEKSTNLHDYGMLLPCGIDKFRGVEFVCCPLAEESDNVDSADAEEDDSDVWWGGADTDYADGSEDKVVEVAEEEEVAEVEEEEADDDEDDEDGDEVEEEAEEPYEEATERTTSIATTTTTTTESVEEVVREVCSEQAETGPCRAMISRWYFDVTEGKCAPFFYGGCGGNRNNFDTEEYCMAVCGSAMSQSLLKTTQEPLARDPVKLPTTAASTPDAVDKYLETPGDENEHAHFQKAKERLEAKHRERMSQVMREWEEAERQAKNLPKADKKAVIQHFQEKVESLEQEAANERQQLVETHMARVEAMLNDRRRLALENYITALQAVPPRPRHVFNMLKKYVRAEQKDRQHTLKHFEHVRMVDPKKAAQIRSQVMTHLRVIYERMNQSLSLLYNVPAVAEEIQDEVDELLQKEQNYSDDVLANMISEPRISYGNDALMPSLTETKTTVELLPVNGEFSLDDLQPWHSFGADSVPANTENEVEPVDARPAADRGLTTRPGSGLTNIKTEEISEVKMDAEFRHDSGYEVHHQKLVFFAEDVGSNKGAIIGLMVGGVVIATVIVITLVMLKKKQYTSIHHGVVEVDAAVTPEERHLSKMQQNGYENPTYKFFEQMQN

Row | Compound | IC50
3 | COc1ccc(/C=C/c2cc(Br)cc(/C=C/c3ccc(OC)c(OC)c3)c2)cc1OC | 20000 nM
4 | CN(C)c1ccc(/C=C/c2cccc(/C=C/c3ccc(N(C)C)cc3)c2)cc1 | > 20000 nM
5 | CN(C)c1ccc(/C=C/c2cc(Br)cc(/C=C/c3ccc(N(C)C)cc3)c2)cc1 | > 20000 nM
6 | CN(C)c1ccc(/C=C/c2cc(I)cc(/C=C/c3ccc(N(C)C)cc3)c2)cc1 | > 20000 nM
7 | COc1cc(/C=C/c2cc(Br)cc(/C=C/c3ccc(O)c(OC)c3)c2)ccc1O | 100 nM
8 | COc1cc(/C=C/c2cccc(/C=C/c3ccc(O)c(OC)c3)n2)ccc1O | 800 nM
9 | COc1cc(/C=C/c2cccc(/C=C/c3ccc(N)c(OC)c3)n2)ccc1N | 700 nM
10 | COc1cc(/C=C/c2cc(Cl)cc(/C=C/c3ccc(O)c(OC)c3)n2)ccc1O | 1100 nM
11 | CNc1ccc(/C=C/c2cccc(/C=C/c3ccc(NC)c(OC)c3)n2)cc1OC | 500 nM
12 | CNc1ccc(/C=C/c2cccc(/C=C/c3ccc(NC)c(O)c3)n2)cc1O | 900 nM
13 | COc1cc(/C=C/c2ccc(O)c(OC)c2)nc(/C=C/c2ccc(O)c(OC)c2)c1 | 1700 nM
14 | COc1cc(/C=C/c2cc(C)cc(/C=C/c3ccc(O)c(OC)c3)n2)ccc1O | 1400 nM
15 | COc1cc(/C=C/c2cc(N(C)C)cc(/C=C/c3ccc(O)c(OC)c3)n2)ccc1O | 1900 nM
16 | CN(C)c1ccc(/C=C/c2cccc(/C=C/c3ccc(N(C)C)c(O)c3)n2)cc1O | 900 nM
17 | COc1cc(/C=C/c2cc(Br)cc(/C=C/c3ccc(N)c(OC)c3)n2)ccc1N | 1100 nM
18 | COc1cc(/C=C/c2cccc(/C=C/c3ccc(N)c(OC)c3)c2)ccc1N | 600 nM
19 | CNc1ccc(/C=C/c2cccc(/C=C/c3ccc(NC)c(OC)c3)c2)cc1OC [listing 2 of 2 here] | 600 nM

Row | Compound | IC50
20 | COc1cc(/C=C/c2cccc(/C=C/c3ccc(N(C)C)c(OC)c3)c2)ccc1N(C)C | 1000 nM
21 | CNc1cc(/C=C/c2cccc(/C=C/c3ccc(OC)c(NC)c3)n2)ccc1OC | 1100 nM
22 | CN(C)c1ccc(/C=C/c2cccc(/C=C/c3ccc(N(C)C)c(O)c3)c2)cc1O | 700 nM
23 | COc1ccc(/C=C/c2cccc(/C=C/c3ccc(OC)c(N)c3)c2)cc1N | 300 nM
24 | CNc1cc(/C=C/c2cccc(/C=C/c3ccc(OC)c(NC)c3)c2)ccc1OC | 1300 nM
25 | CNc1cc(/C=C/c2cccc(/C=C/c3ccc(O)c(NC)c3)n2)ccc1O | 500 nM
26 | COc1ccc(/C=C/c2cccc(/C=C/c3ccc(OC)c(N(C)C)c3)c2)cc1N(C)C | 1100 nM
27 | CN(C)c1cc(/C=C/c2cccc(/C=C/c3ccc(O)c(N(C)C)c3)c2)ccc1O | 2700 nM
28 | COc1cc(/C=C/c2cccc(/C=C/c3ccc(N4CCCC4)c(OC)c3)c2)ccc1N1CCCC1 | > 20000 nM
29 | COc1cc(/C=C/c2cccc(/C=C/c3ccc(N(C)C)c(OC)c3)n2)ccc1N(C)C | 800 nM
30 | COc1ccc(/C=C/c2cccc(/C=C/c3ccc(OC)c(N)c3)n2)cc1N | 600 nM
31 | COc1ccc(/C=C/c2cccc(/C=C/c3ccc(OC)c(N(C)C)c3)n2)cc1N(C)C | 900 nM
32 | COc1cc(/C=C/c2cc(Br)cc(/C=C/c3ccc(N)c(OC)c3)c2)ccc1N | 1800 nM
33 | O=C(O)c1cc(/C=C/c2ccc(/C=C/c3ccc(O)c(C(=O)O)c3)c(I)c2)ccc1O | 8000 nM
34 | CN(C)c1cc(/C=C/c2cccc(/C=C/c3ccc(O)c(N(C)C)c3)n2)ccc1O | 2300 nM
35 | COc1cc(/C=C/c2cc(Br)cc(/C=C/c3ccc(O)c(OC)c3)n2)ccc1O | 1100 nM
36 | CN(C)c1ccc2cc3ccc(N(C)C)cc3nc2c1 [ACRIDINE ORANGE] | 600 nM
